This note sets out measurements from patent US20230103631A1, “PEPTIDES AS SELECTIVE GIP RECEPTOR AGONISTS” (Sanofi, priority 2020, published 2023).

Usually AUC(0-t) stands for exposure summed from dosing to a finite time, without extrapolation to infinity. Higher therefore signals more exposure. The term Cmax denotes the maximum level reached in the sampled fluid or tissue. What is called half-life is how long it takes for the measured level to halve. For orientation: bioavailability means dose-corrected exposure relative to a reference, in per cent.

*1 amine or outer side, *2 acyl side, *3 side chain or, on linkers, in order; H or OH if unused. Where a SMILES comes first, the peptide text is derived from it. Side-chain parts run from the residue outwards. [ ]: non-standard residue; d: D form. The star is where a group is joined. C18 diacid = O=C(O)CCCCCCCCCCCCCCCCC(=O)*; γGlu = O=C(O)[C@H](CCC(=O)[*:2])N[*:1]; AEEA = NCCOCCOCC(=O)O; Aib = CC(C)(N)C(=O)O

What all share (type): in vivo
Series [1] in a line: Pharmacokinetic evaluation in rats. The note with it: male, SD, rat, plasma; for clearance: read-out: CI (converted). How it is done:
(§1) Compounds were administered in a suitable buffer system, e.g. PBS buffer solution at pH7.4 or DPBS solution at concentrations of 0.05, 0.1, 0.5 or 1 mg/ml depending on dose, species and administration volume.
Male SD rats were dosed 0.25 mg/kg, 0.5 mg/kg or 1 mg/kg intravenously (i.v.) or subcutaneously (s.c.). Blood samples were collected after 0.08, 0.25, 0.5, 1, 2, 4, 8, 24, 32, and 48 h post i.v. application and 0.25, 0.5, 1, 2, 4, 8, 24, 32, and 48 h post s.c. application, respectively. Plasma samples were analyzed after protein precipitation via liquid chromatography mass spectrometry (LC/MS). PK parameters and half-life were calculated using Phoenix-WinNonlin 8.1 using a non-compartmental model and linear trapezoidal interpolation calculation.
(§2) Pharmacokinetic profiles were determined as described in Methods.

A short description of series [2]: Pharmacokinetic evaluation in minipigs. The note with it: female, Gottingen, minipig, plasma.
A short description of series [3]: Pharmacokinetic evaluation in mice. To be noted: female, C57Bl/6, mouse, plasma. On the procedure:
as §1
Female C57Bl/6 mice were dosed 0.25 mg/kg, 0.5 mg/kg or 1 mg/kg intravenously (i.v.) or subcutaneously (s.c.). The mice were sacrificed, and blood samples were collected after 0.08, 0.25, 0.5, 1, 2, 4, 8, 24, 32, and 48 h post i.v. application and 0.25, 0.5, 1, 2, 4, 8, 24, 32, and 48 h post s.c. application, respectively. Plasma samples were analyzed after protein precipitation via liquid chromatography mass spectrometry (LC/MS). PK parameters and half-life were calculated using Phoenix-WinNonlin 8.1 using a non-compartmental model and linear trapezoidal interpolation calculation.
as §2

The subject of the next series is C57Bl/6 mice. Briefly: Intraperitoneal glucose tolerance test (ipGTT) after s.c. treatment. To be noted: for Incremental blood glucose concentration AUCi / Blood glucose concentration AUC: mean ± SEM; for Incremental blood glucose concentration AUCi: vehicle +4.93 ± 0.324; for Blood glucose concentration AUC: vehicle +22.15 ± 0.662. On the procedure:
Healthy, normoglycemic male C57Bl/6NCrl mice were ordered in an age of 9-10 weeks with an approximate body weight (BW) of 24-26 g at Charles River Laboratories Deutschland GmbH, 97633 Sulzfeld, Germany. Mice were shipped grouped housed (N=4 per cage), acclimatized for one week and remained grouped housed throughout the entire study. Mice were housed under vivarium conditions that included a 12 h light/dark cycle (light phase 06:00 AM-06:00 PM), mean room temperature of 22±2° C. and a relative mean humidity of 55±10%. All animals had free access to food (Ssniff R/M-H diet) and water prior to study start.
The primary objective of the study was to investigate the compound-induced lowering of the blood glucose excursion and improvement of glucose tolerance in a mouse ipGTT setting and therefore the primary parameters included blood glucose, delta blood glucose (normalized to the time point just prior to the i.p. glucose challenge, t=0 h) and their respective calculated area under curve (AUC) values. The study was performed as an acute, single dosing study with 6 groups and the male animals were randomly divided to groups of 7-8 mice per group. Dose-dependent pharmacodynamic blood glucose lowering efficacy of the GIPR agonist was analyzed with s.c. injections 6 h before the i.p. glucose load in the dose range from 3 up to 100 nmol/kg and compared to the vehicle group as well as the semaglutide positive control at a dose of 10 nmol/kg.
In more detail, mice were fed overnight and on the following morning brought to the lab with food removed but ad libitum access to water. Blood samplings (5 μl) were performed at: −6.5, −0.5, 0, 0.17, 0.5, 1, 1.5, 2 and 3 h before and after the glucose bolus of 1 g glucose per kg BW i.p. given at time point t=0 h. On time point t=0.17 h an additional K-EDTA plasma sample from 60-80 μl blood was taken for plasma insulin analysis. Blood was withdrawn from the tip of the tail. The GIPR agonist and semaglutide were dissolved in 10 mM phosphate buffer pH 7.4 with 2.3% glycerol and 0.01% polysorbat 20 (vehicle) and s.c. treatment was performed −6 h before the glucose load (t=0 h) using an injection volume of 5 ml/kg. The injection solutions were freshly prepared prior to the experiment using sterile filtered vehicle solution.
Blood glucose was determined enzymatically (Gluco-quant® Glucose/HK kit on Roche/Hitachi 912). Plasma insulin was determined using a mouse/rat insulin sandwich immunoassay kit from Meso Scale Discovery.
All data were collected using Microsoft Excel. None of the data were collected online. The results are expressed as means±standard error of the mean (SEM). As primary study parameters, blood glucose, baseline (time point t=0 h) subtracted delta blood glucose and their respective calculated area under curve (AUC) values were determined. The respective AUC data were calculated using the trapezoid rule for the time period t=0 h until t=2 h.
The statistical analysis of the ipGTT blood glucose excursion data response following subcutaneous compound or vehicle treatment was performed on the calculated AUC values of blood glucose raw data as well as the calculated AUC values for baseline subtracted delta blood glucose data. In a first step the Levene's test was used to test for equality of variances between groups. Where Levene's test was significant (p s 0.05), a rank transformation of the calculated AUC data was applied to stabilize the variances before ANOVA analysis was conducted. Where Levene's test was not significant (p>0.05) ANOVA was conducted without prior rank transformation. In a second step a One-way ANOVA analysis for factor treatment followed by Dunnett's multiple comparisons test vs. vehicle group was used to test for statistical differences. Different levels of significance were defined as *=p<0.05, **=p<0.001, ***=p<0.0001. All analyses were performed using SAS (version 9.4) under Linux via the interface software EverSt@t V6.1. […]

Where [4] appears, read: 3 nmol/kg s.c. 6 h before i.p. glucose load.
Setting [5] is: 10 nmol/kg s.c. 6 h before i.p. glucose load.
The mark [6] stands for this setting: 30 nmol/kg s.c. 6 h before i.p. glucose load.
[7] abbreviates: 100 nmol/kg s.c. 6 h before i.p. glucose load.

Take `CC[C@H](C)[C@H](NC(=O)[C@H](CCCNC(=N)N)NC(=O)[C@H](CC(=O)O)NC(=O)[C@H](CCCCNC(=O)COCCOCCNC(=O)COCCOCCNC(=O)CC[C@H](NC(=O)CCCCCCCCCCCCCCCCC(=O)O)C(=O)O)NC(=O)C(C)(C)NC(=O)[C@@H](NC(=O)[C@H](CO)NC(=O)[C@H](CC(C)C)NC(=O)[C@H](CC(=O)O)NC(=O)[C@H](CO)NC(=O)[C@@H](NC(=O)[C@H](Cc1ccccc1)NC(=O)[C@@H](NC(=O)CNC(=O)[C@H](CCC(=O)O)NC(=O)C(C)(C)NC(=O)[C@@H](N)Cc1ccc(O)cc1)[C@@H](C)O)[C@@H](C)CC)[C@@H](C)CC)C(=O)N[C@@H](Cc1c[nH]cn1)C(=O)N[C@@H](CCC(N)=O)C(=O)NC(C)(C)C(=O)N[C@@H](CCC(=O)O)C(=O)N[C@@H](Cc1ccccc1)C(=O)N[C@H](C(=O)N[C@@H](CCC(=O)O)C(=O)N[C@@H](Cc1c[nH]c2ccccc12)C(=O)N[C@@H](CC(C)C)C(=O)N[C@@H](CC(C)C)C(=O)N[C@@H](C)C(=O)N[C@@H](CCC(N)=O)C(=O)NCC(=O)N1CCC[C@H]1C(=O)N[C@@H](CO)C(=O)N[C@@H](CO)C(=O)NCC(=O)N[C@@H](C)C(=O)N1CCC[C@H]1C(=O)N1CCC[C@H]1C(=O)N1CCC[C@H]1C(=O)N[C@@H](CO)C(N)=O)[C@@H](C)CC` [SEQ ID NO: 4, H2N-Y-Aib-E-G-T-F-I-S-D-I-S-I-Aib-K[{AEEA}2-gGlu-C18OH]-D-R-I-H-Q-Aib-E-F-I-E-W-I-L-A-Q-G-P-S-S-G-A-P-P-P-S-NH2] (H-Y[Aib]EGTFISDLSI[Aib]K([AEEA-AEEA-γGlu-C18 diacid])DRIHQ[Aib]EFIEWLLAQGPSSGAPPPS-NH2): in series [1] (iv, 0.25 mg/kg i.v.), the AUC(0-t) was determined as 50200 ng·h/mL, the concentration peaked (Cmax) at 6890 ng/mL, the half-life is 12.3 h and the clearance was 4.68 mL/h/kg. In addition, in series [1] (sc, 0.5 mg/kg s.c.), the AUC(0-t) was found to be 44400 ng·h/mL, the Cmax turned out to be 1270 ng/mL, the bioavailability amounted to 52% and the half-life is 16.5 h.

Regarding `CC[C@H](C)[C@H](NC(=O)[C@H](Cc1ccccc1)NC(=O)[C@H](CCC(=O)O)NC(=O)[C@H](CCC(=O)O)NC(=O)[C@H](CCC(N)=O)NC(=O)[C@H](Cc1c[nH]cn1)NC(=O)[C@@H](NC(=O)[C@H](CCCNC(=N)N)NC(=O)[C@H](CC(=O)O)NC(=O)[C@H](CCCCNC(=O)COCCOCCNC(=O)COCCOCCNC(=O)CC[C@H](NC(=O)CCCCCCCCCCCCCCCCC(=O)O)C(=O)O)NC(=O)C(C)(C)NC(=O)[C@@H](NC(=O)[C@H](CO)NC(=O)[C@H](CC(C)C)NC(=O)[C@H](CC(=O)O)NC(=O)[C@H](CO)NC(=O)[C@@H](NC(=O)[C@H](Cc1ccccc1)NC(=O)[C@@H](NC(=O)CNC(=O)[C@H](CCC(=O)O)NC(=O)C(C)(C)NC(=O)[C@@H](N)Cc1ccc(O)cc1)[C@@H](C)O)[C@@H](C)CC)[C@@H](C)CC)[C@@H](C)CC)C(=O)N[C@@H](CCC(=O)O)C(=O)N[C@@H](Cc1c[nH]c2ccccc12)C(=O)N[C@@H](CC(C)C)C(=O)N[C@@H](CC(C)C)C(=O)N[C@@H](C)C(=O)N[C@@H](CCC(N)=O)C(=O)NCC(=O)N1CCC[C@H]1C(=O)N[C@@H](CO)C(=O)N[C@@H](CO)C(=O)NCC(=O)N[C@@H](C)C(=O)N1CCC[C@H]1C(=O)N1CCC[C@H]1C(=O)N1CCC[C@H]1C(=O)N[C@@H](CO)C(N)=O` [SEQ ID NO: 9, H2N-Y-Aib-E-G-T-F-I-S-D-I-S-I-Aib-K[{AEEA}2-gGlu-C18OH]-DRIHQEEFIEWILAQGPSSGAPPPS-NH2] (H-Y[Aib]EGTFISDLSI[Aib]K([AEEA-AEEA-γGlu-C18 diacid])DRIHQEEFIEWLLAQGPSSGAPPPS-NH2), the AUC(0-t) in series [2] (iv, 0.05 mg/kg i.v.) came out at 177000 ng·h/mL; in series [2] (sc, 0.1 mg/kg s.c.), 228000 ng·h/mL; in series [3] (iv, 0.25 mg/kg i.v.), 25700 ng·h/mL; in series [3] (sc, 0.5 mg/kg s.c.) it was 42200 ng·h/mL; in series [1] (iv, 0.25 mg/kg i.v.), 54500 ng·h/mL; in series [1] (sc, 0.5 mg/kg s.c.), 72900 ng·h/mL. In addition, the Cmax in series [2] (iv, 0.05 mg/kg i.v.) came out at 5530 ng/mL; in series [2] (sc, 0.1 mg/kg s.c.), 3080 ng/mL; in series [3] (iv, 0.25 mg/kg i.v.), 3920 ng/mL; in series [3] (sc, 0.5 mg/kg s.c.) it was 2190 ng/mL; in series [1] (iv, 0.25 mg/kg i.v.) it was 5600 ng/mL; in series [1] (sc, 0.5 mg/kg s.c.), 2490 ng/mL. In addition, the half-life was 75.8 h in series [2] (iv, 0.05 mg/kg i.v.); 8 h in series [3] (iv, 0.25 mg/kg i.v.); 7.3 h in series [3] (sc, 0.5 mg/kg s.c.); 14.8 h in series [1] (iv, 0.25 mg/kg i.v.); 16.9 h in series [1] (sc, 0.5 mg/kg s.c.). Moreover, the clearance in series [2] (iv, 0.05 mg/kg i.v., read-out: CI (converted)) is 0.16 mL/h/kg; in series [3] (iv, 0.25 mg/kg i.v., read-out: CI (converted)), 9.59 mL/h/kg; in series [1] (iv, 0.25 mg/kg i.v.) it was 4.19 mL/h/kg. Further, the bioavailability in series [2] (sc, 0.1 mg/kg s.c.) is 64%; in series [3] (sc, 0.5 mg/kg s.c.), 82%; in series [1] (sc, 0.5 mg/kg s.c.), 73%. For the same molecule, the “Incremental blood glucose concentration AUCi” value is recorded as “+3.41 ± 0.520 mmol/L* 0-2 h” in the series with C57Bl/6 mice (setting [4]), “+3.33 ± 0.210 mmol/L* 0-2 h” in the series on C57Bl/6 mice (setting [5]), “+2.76 ± 0.268 mmol/L* 0-2 h” with C57Bl/6 mice (setting [6]) and “+1.90 ± 0.158 mmol/L* 0-2 h” in the series on C57Bl/6 mice (setting [7]). Also, the “Blood glucose concentration AUC” value is given as “+21.07 ± 0.544 mmol/L* 0-2 h” in the series on C57Bl/6 mice (setting [4]), “+19.28 ± 0.518 mmol/L* 0-2 h” in the series on C57Bl/6 mice (setting [5]), “+18.20 ± 0.662 mmol/L* 0-2 h” with C57Bl/6 mice (setting [6]) and “+14.81 ± 0.533 mmol/L* 0-2 h” with C57Bl/6 mice (setting [7]). The “i.p. glucose tolerance compared to the vehicle group” value in the series on C57Bl/6 mice (single s.c. dose 3-100 nmol/kg, ipGTT in C57Bl/6 mice) was “significant and dose-dependent improvement”. In addition, the “minimal effective dose (improvement of i.p. glucose tolerance)” value with C57Bl/6 mice (single s.c. dose, ipGTT in C57Bl/6 mice) is 3 to 10 nmol/kg.
